Test system: MV-4-11 cells
Test: Gene expression microarray analysis (Affymetrix PrimeView) and GSEA
Format: cell-based, human
Set-up: RFU PODN (11730768_x_at) / Fold change /veh PODN (11730768_x_at) / RFU LINC00158 (11744669_a_at) / Fold change /veh LINC00158 (11744669_a_at) / RFU DUSP10 (11751237_a_at) / Fold change /veh DUSP10 (11751237_a_at) / RFU ID3 (11757404_x_at) / Fold change /veh ID3 (11757404_x_at) / RFU PLEKHG5 (11737974_s_at) / Fold change /veh PLEKHG5 (11737974_s_at) / RFU LRRC4B (11730491_at) / Fold change /veh LRRC4B (11730491_at) / RFU GIMAP4 (11747438_a_at) / Fold change /veh GIMAP4 (11747438_a_at) / RFU KRT8 (11758183_x_at) / Fold change /veh KRT8 (11758183_x_at) / RFU CNN1 (11734310_a_at) / Fold change /veh CNN1 (11734310_a_at) / RFU VPS37D (11726825_at) / Fold change /veh VPS37D (11726825_at) / RFU C10orf10 (11716522_x_at) / Fold change /veh C10orf10 (11716522_x_at) / RFU KIR2DL2 /// KIR2DL4 /// KIR2DL5A /// KIR2DL5B /// KIR2DS1 /// KIR2DS2 /// KIR2DS3 /// KIR2DS4 /// KIR3DL3 /// KIR3DL3 /// KIR3DS1 (11738374_at) / Fold change /veh KIR2DL2 /// KIR2DL4 /// KIR2DL5A /// KIR2DL5B /// KIR2DS1 /// KIR2DS2 /// KIR2DS3 /// KIR2DS4 /// KIR3DL3 /// KIR3DL3 /// KIR3DS1 (11738374_at) / RFU C1QL1 (11718748_at) / Fold change /veh C1QL1 (11718748_at) / RFU TMPRSS4 (11747572_a_at) / Fold change /veh TMPRSS4 (11747572_a_at) / RFU HAMP (11756126_x_at) / Fold change /veh HAMP (11756126_x_at) / RFU RNFT2 (11725882_a_at) / Fold change /veh RNFT2 (11725882_a_at) / RFU NR4A2 (11747474_a_at) / Fold change /veh NR4A2 (11747474_a_at) / RFU ABCC12 (11746883_a_at) / Fold change /veh ABCC12 (11746883_a_at) / RFU TMEM136 (11760407_x_at) / Fold change /veh TMEM136 (11760407_x_at) / RFU CLDN22 /// WWC2 (11732394_at) / Fold change /veh CLDN22 /// WWC2 (11732394_at) / RFU HLA-DPB1 (11760878_x_at) / Fold change /veh HLA-DPB1 (11760878_x_at) / RFU SPINT1 (11716480_a_at) / Fold change /veh SPINT1 (11716480_a_at) / RFU GAP43 (11754022_s_at) / Fold change /veh GAP43 (11754022_s_at) / RFU A4GNT (11735810_at) / Fold change /veh A4GNT (11735810_at) / RFU PRB3 (11715151_x_at) / Fold change /veh PRB3 (11715151_x_at) / RFU TUBB4B (11761932_at) / Fold change /veh TUBB4B (11761932_at) / RFU CAPN14 (11732068_a_at) / Fold change /veh CAPN14 (11732068_a_at) / RFU TMCC2 (11721928_a_at) / Fold change /veh TMCC2 (11721928_a_at) / RFU IRGQ (11745062_a_at) / Fold change /veh IRGQ (11745062_a_at) / RFU FAM174B (11720279_a_at) / Fold change /veh FAM174B (11720279_a_at) / RFU TMPRSS4 (11748680_a_at) / Fold change /veh TMPRSS4 (11748680_a_at) / RFU FAM212B (11763350_a_at) / Fold change /veh FAM212B (11763350_a_at) / RFU PLEKHG5 (11743358_a_at) / Fold change /veh PLEKHG5 (11743358_a_at) / RFU ZSCAN30 (11745921_a_at) / Fold change /veh ZSCAN30 (11745921_a_at) / RFU CMKLR1 (11741424_a_at) / Fold change /veh CMKLR1 (11741424_a_at) / RFU LOC101060620 /// MAPK8IP1 (11723275_at) / Fold change /veh LOC101060620 /// MAPK8IP1 (11723275_at) / RFU SPTSSB (11747773_x_at) / Fold change /veh SPTSSB (11747773_x_at) / RFU PRSS12 (11739890_at) / Fold change /veh PRSS12 (11739890_at) / RFU BIN1 (11741810_x_at) / Fold change /veh BIN1 (11741810_x_at) / RFU WNT11 (11732464_a_at) / Fold change /veh WNT11 (11732464_a_at) / RFU C10orf10 (11716521_a_at) / Fold change /veh C10orf10 (11716521_a_at) / RFU C5orf56 (11738089_at) / Fold change /veh C5orf56 (11738089_at) / RFU CYB561 (11721691_x_at) / Fold change /veh CYB561 (11721691_x_at) / RFU ANKRD19P (11752326_a_at) / Fold change /veh ANKRD19P (11752326_a_at) / RFU OR2T12 /// OR2T33 /// OR2T8 (11738714_s_at) / Fold change /veh OR2T12 /// OR2T33 /// OR2T8 (11738714_s_at) / RFU VCAN (11748164_a_at) / Fold change /veh VCAN (11748164_a_at) / RFU JSRP1 (11732532_at) / Fold change /veh JSRP1 (11732532_at) / RFU KRTAP10-11 (11738290_x_at) / Fold change /veh KRTAP10-11 (11738290_x_at) / RFU MYO3A (11730013_a_at) / Fold change /veh MYO3A (11730013_a_at) / RFU EBF3 (11725865_a_at) / Fold change /veh EBF3 (11725865_a_at) / RFU CAMK2N1 (11719241_x_at) / Fold change /veh CAMK2N1 (11719241_x_at) / RFU C5orf56 (11738088_a_at) / Fold change /veh C5orf56 (11738088_a_at) / RFU OLFML3 (11715873_a_at) / Fold change /veh OLFML3 (11715873_a_at) / RFU LOC100653217 /// NTM (11731650_a_at) / Fold change /veh LOC100653217 /// NTM (11731650_a_at) / RFU MAPK11 (11762145_a_at) / Fold change /veh MAPK11 (11762145_a_at) / RFU FIZ1 (11724087_x_at) / Fold change /veh FIZ1 (11724087_x_at) / RFU OASL (11726364_x_at) / Fold change /veh OASL (11726364_x_at) / RFU SOX15 (11748057_x_at) / Fold change /veh SOX15 (11748057_x_at) / RFU CD79A (11719716_a_at) / Fold change /veh CD79A (11719716_a_at) / RFU HIST1H1D (11736915_at) / Fold change /veh HIST1H1D (11736915_at) / RFU CASKIN2 (11723855_a_at) / Fold change /veh CASKIN2 (11723855_a_at) / RFU LOC730098 (11760151_x_at) / Fold change /veh LOC730098 (11760151_x_at) / RFU OR4N2 (11742367_at) / Fold change /veh OR4N2 (11742367_at) / RFU PRRT2 (11749266_a_at) / Fold change /veh PRRT2 (11749266_a_at) / RFU SNX32 (11753110_a_at) / Fold change /veh SNX32 (11753110_a_at) / RFU CDHR5 (11726645_a_at) / Fold change /veh CDHR5 (11726645_a_at) / RFU RCAN1 (11760418_a_at) / Fold change /veh RCAN1 (11760418_a_at) / RFU FAM167A (11723789_a_at) / Fold change /veh FAM167A (11723789_a_at) / RFU FAM26E (11764081_at) / Fold change /veh FAM26E (11764081_at) / RFU ISYNA1 (11749810_s_at) / Fold change /veh ISYNA1 (11749810_s_at) / RFU ACY1 (11761880_at) / Fold change /veh ACY1 (11761880_at) / RFU 11764098_at / Fold change /veh 11764098_at / RFU SAMD14 (11745864_x_at) / Fold change /veh SAMD14 (11745864_x_at) / RFU NPB (11741838_a_at) / Fold change /veh NPB (11741838_a_at) / RFU TMPRSS6 (11731388_a_at) / Fold change /veh TMPRSS6 (11731388_a_at) / RFU KRTAP10-2 (11738614_at) / Fold change /veh KRTAP10-2 (11738614_at) / RFU ARHGAP8 /// PRR5-ARHGAP8 (11727945_x_at) / Fold change /veh ARHGAP8 /// PRR5-ARHGAP8 (11727945_x_at) / RFU KRTAP5-7 /// NADSYN1 (11734609_at) / Fold change /veh KRTAP5-7 /// NADSYN1 (11734609_at) / RFU RASL12 (11751679_a_at) / Fold change /veh RASL12 (11751679_a_at) / RFU CDKN2B (11736163_a_at) / Fold change /veh CDKN2B (11736163_a_at) / RFU PRF1 (11729649_at) / Fold change /veh PRF1 (11729649_at) / RFU, ZNF638 /// ZNF638-IT1 / Fold change vs veh, ZNF638 /// ZNF638-IT1 / RFU, PANK3 / Fold change vs veh, PANK3 / RFU, SH3YL1 / Fold change vs veh, SH3YL1 / RFU, ZEB2 / Fold change vs veh, ZEB2 / RFU, NRIP1 / Fold change vs veh, NRIP1 / RFU, PTTG1IP / Fold change vs veh, PTTG1IP / RFU, CAPN2 / Fold change vs veh, CAPN2 / RFU, MED14 / Fold change vs veh, MED14 / RFU, SNORA58 / Fold change vs veh, SNORA58 / RFU, C1orf63 / Fold change vs veh, C1orf63 / RFU, LRRFIP1 / Fold change vs veh, LRRFIP1 / RFU, NDUFAF7 / Fold change vs veh, NDUFAF7 / RFU, SLC12A2 / Fold change vs veh, SLC12A2 / RFU, IBTK / Fold change vs veh, IBTK / RFU, ESF1 / Fold change vs veh, ESF1 / Fold change vs veh, TMEM50B / RFU, TAOK1 / Fold change vs veh, TAOK1 / RFU, ACBD3 / Fold change vs veh, ACBD3 / RFU, TMA16 / Fold change vs veh, TMA16 / RFU, RWDD3 / Fold change vs veh, RWDD3 / RFU, BCAT1 / Fold change vs veh, BCAT1 / RFU, EDEM3 / Fold change vs veh, EDEM3 / RFU, TMEM33 / Fold change vs veh, TMEM33 / RFU, WDR75 / Fold change vs veh, WDR75 / RFU, AHCTF1 / Fold change vs veh, AHCTF1 / RFU, TFRC / Fold change vs veh, TFRC / RFU, ZDHHC17 / Fold change vs veh, ZDHHC17 / RFU, NOM1 / Fold change vs veh, NOM1 / RFU, ARL8B / Fold change vs veh, ARL8B / RFU, ZBTB11 / Fold change vs veh, ZBTB11 / RFU, TAMM41 / Fold change vs veh, TAMM41 / RFU, KIAA1704 /// LOC100996395 / Fold change vs veh, KIAA1704 /// LOC100996395 / RFU, ING1 / Fold change vs veh, ING1 / RFU, TRMT61B / Fold change vs veh, TRMT61B / RFU, FUBP3 / Fold change vs veh, FUBP3 / RFU, TP53 / Fold change vs veh, TP53 / RFU, TNKS2 / Fold change vs veh, TNKS2 / RFU, ZFP14 / Fold change vs veh, ZFP14 / RFU, ACTR2 / Fold change vs veh, ACTR2 / RFU, PPP3R1 / Fold change vs veh, PPP3R1 / RFU, PIK3R1 / Fold change vs veh, PIK3R1 / RFU, HNRNPA1 / Fold change vs veh, HNRNPA1 / RFU, RNF170 / Fold change vs veh, RNF170 / RFU, ZNF28 / Fold change vs veh, ZNF28 / RFU, RNGTT / Fold change vs veh, RNGTT / RFU, OGT / Fold change vs veh, OGT / RFU, BRD1 / Fold change vs veh, BRD1 / RFU, MARS / Fold change vs veh, MARS / RFU, ZNF655 / Fold change vs veh, ZNF655 / RFU, FAHD1 / Fold change vs veh, FAHD1 / RFU, BDP1 / Fold change vs veh, BDP1 / RFU, LRRCC1 / Fold change vs veh, LRRCC1 / RFU, ARID1A / Fold change vs veh, ARID1A / RFU, ZNF146 / Fold change vs veh, ZNF146 / RFU, ZNF330 / Fold change vs veh, ZNF330 / RFU, GPN3 / Fold change vs veh, GPN3 / RFU, C9orf123 / Fold change vs veh, C9orf123 / RFU, N4BP2L2 / Fold change vs veh, N4BP2L2 / RFU, ARFIP1 / Fold change vs veh, ARFIP1 / RFU, FAM179B / Fold change vs veh, FAM179B / RFU, BCL10 / Fold change vs veh, BCL10 / RFU, UHRF1BP1L / Fold change vs veh, UHRF1BP1L / RFU, BET1 / Fold change vs veh, BET1 / RFU, CNOT2 / Fold change vs veh, CNOT2 / RFU, ZNF268 / Fold change vs veh, ZNF268 / Fold change vs veh, ZNF507 / RFU, DGCR2 / Fold change vs veh, DGCR2 / RFU, WDSUB1 / Fold change vs veh, WDSUB1 / Fold change vs veh, HSP90B1 /// MIR3652 / RFU, ADSS / Fold change vs veh, ADSS / RFU, GK / Fold change vs veh, GK / RFU, ZNF148 / Fold change vs veh, ZNF148 / RFU, TAF9 / Fold change vs veh, TAF9 / RFU, SLC1A5 / Fold change vs veh, SLC1A5 / RFU, SLMO2 / Fold change vs veh, SLMO2 / RFU, ABCC4 / Fold change vs veh, ABCC4 / RFU, LOC101060439 /// RAP1B / Fold change vs veh, LOC101060439 /// RAP1B / RFU, RFX7 / Fold change vs veh, RFX7 / RFU, GTPBP10 / Fold change vs veh, GTPBP10 / RFU, CNEP1R1 / Fold change vs veh, CNEP1R1 / RFU, BIVM-ERCC5 /// ERCC5 / Fold change vs veh, BIVM-ERCC5 /// ERCC5 / RFU, ILF3 / Fold change vs veh, ILF3 / RFU 11762660_at / Fold change /veh 11762660_at / RFU VCAN (11757783_s_at) / Fold change /veh VCAN (11757783_s_at) / RFU DDX43 (11728927_at) / Fold change /veh DDX43 (11728927_at) / RFU KRT8 (11758188_x_at) / Fold change /veh KRT8 (11758188_x_at) / RFU NKD1 (11759106_at) / Fold change /veh NKD1 (11759106_at) / RFU SRD5A1 (11742802_a_at) / Fold change /veh SRD5A1 (11742802_a_at) / RFU TPSAB1 /// TPSB2 (11721975_s_at) / Fold change /veh TPSAB1 /// TPSB2 (11721975_s_at) / RFU GSTM3 (11746129_a_at) / Fold change /veh GSTM3 (11746129_a_at) / RFU IL23R (11737362_x_at) / Fold change /veh IL23R (11737362_x_at) / RFU TMEM51 (11727254_a_at) / Fold change /veh TMEM51 (11727254_a_at) / RFU PIWIL2 (11732686_x_at) / Fold change /veh PIWIL2 (11732686_x_at) / RFU ORM1 (11744905_x_at) / Fold change /veh ORM1 (11744905_x_at) / RFU CCDC152 (11743942_at) / Fold change /veh CCDC152 (11743942_at) / RFU ECM1 (11717891_a_at) / Fold change /veh ECM1 (11717891_a_at) / RFU IL23R (11748794_a_at) / Fold change /veh IL23R (11748794_a_at) / RFU TNFAIP8L3 (11732012_x_at) / Fold change /veh TNFAIP8L3 (11732012_x_at) / RFU MBOAT4 (11741988_at) / Fold change /veh MBOAT4 (11741988_at) / RFU 11764193_at / Fold change /veh 11764193_at / RFU TMEM53 (11763286_at) / Fold change /veh TMEM53 (11763286_at) / RFU MAGEB2 (11727129_at) / Fold change /veh MAGEB2 (11727129_at) / RFU TMEM200A (11744735_a_at) / Fold change /veh TMEM200A (11744735_a_at) / RFU CCDC152 (11751479_a_at) / Fold change /veh CCDC152 (11751479_a_at) / RFU FAM211A (11726209_a_at) / Fold change /veh FAM211A (11726209_a_at) / RFU RGS16 (11746705_a_at) / Fold change /veh RGS16 (11746705_a_at) / RFU VCAN (11755009_s_at) / Fold change /veh VCAN (11755009_s_at) / RFU RHOB (11743442_s_at) / Fold change /veh RHOB (11743442_s_at) / RFU RGS16 (11720943_a_at) / Fold change /veh RGS16 (11720943_a_at) / RFU RGS16 (11720944_at) / Fold change /veh RGS16 (11720944_at) / RFU, VPS4B / Fold change vs veh, VPS4B / RFU, CREB1 / Fold change vs veh, CREB1 / RFU, DNAJC13 / Fold change vs veh, DNAJC13 / RFU, GNAQ / Fold change vs veh, GNAQ / RFU, CDK5R1 / Fold change vs veh, CDK5R1 / RFU, ZRANB3 / Fold change vs veh, ZRANB3 / RFU, CUL4A / Fold change vs veh, CUL4A / RFU, CCNY / Fold change vs veh, CCNY / RFU, UFL1 / Fold change vs veh, UFL1 / RFU, COG3 / Fold change vs veh, COG3 / RFU, DIAPH2 / Fold change vs veh, DIAPH2 / RFU, SKA2 / Fold change vs veh, SKA2 / RFU, AFF3 / Fold change vs veh, AFF3 / RFU, LMF1 / Fold change vs veh, LMF1 / RFU, IPO11 / Fold change vs veh, IPO11 / RFU, DFFB / Fold change vs veh, DFFB / RFU, FOXP1 / Fold change vs veh, FOXP1 / RFU, CARD8 / Fold change vs veh, CARD8 / RFU, STRN3 / Fold change vs veh, STRN3 / RFU, ADK / Fold change vs veh, ADK / RFU, RASSF2 / Fold change vs veh, RASSF2 / RFU, WIPF1 / Fold change vs veh, WIPF1 / RFU, LARP1B / Fold change vs veh, LARP1B / RFU, RASA1 / Fold change vs veh, RASA1 / RFU, RB1 / Fold change vs veh, RB1 / RFU, PPFIA1 / Fold change vs veh, PPFIA1 / RFU, MAT2A / Fold change vs veh, MAT2A / RFU, CCT5 / Fold change vs veh, CCT5 / RFU, WDR92 / Fold change vs veh, WDR92 / RFU, CUX1 / Fold change vs veh, CUX1 / RFU, TTC7A / Fold change vs veh, TTC7A / RFU, TMEM135 / Fold change vs veh, TMEM135 / RFU, DEPTOR / Fold change vs veh, DEPTOR / RFU, CPM / Fold change vs veh, CPM / RFU, DNAJB6 / Fold change vs veh, DNAJB6 / RFU, CACNA2D3 / Fold change vs veh, CACNA2D3 / RFU, DTX4 / Fold change vs veh, DTX4 / RFU, TFCP2 / Fold change vs veh, TFCP2 / RFU, GMCL1 /// GMCL1P1 / Fold change vs veh, GMCL1 /// GMCL1P1 / RFU, AEBP2 / Fold change vs veh, AEBP2 / RFU, SNHG1 /// SNORD22 /// SNORD25 /// SNORD26 /// SNORD27 /// SNORD28 /// SNORD29 /// SNORD31 / Fold change vs veh, SNHG1 /// SNORD22 /// SNORD25 /// SNORD26 /// SNORD27 /// SNORD28 /// SNORD29 /// SNORD31 / Fold change (Aza/veh), C12orf56 (ProbeSet 11735607_a_at) / Fold change (ACY-1035/veh), C12orf56 (ProbeSet 11735607_a_at) / Fold change (Aza/veh), FGFR1OP (ProbeSet 11751329_s_at) / Fold change (ACY-1035/veh), FGFR1OP (ProbeSet 11751329_s_at) / Fold change (Aza/veh), VPS36 (ProbeSet 11739960_a_at) / Fold change (ACY-1035/veh), VPS36 (ProbeSet 11739960_a_at) / RFU SYPL1 (11715823_x_at) / Fold change /veh SYPL1 (11715823_x_at) / RFU IGFBP7 (11715501_s_at) / Fold change /veh IGFBP7 (11715501_s_at) / RFU REEP3 (11722064_at) / Fold change /veh REEP3 (11722064_at) / RFU IGLL1 (11728026_x_at) / Fold change /veh IGLL1 (11728026_x_at): dose or concentration left out as unconfirmed
Details: ProbeSet 11743580_s_at; LIST B

Nc1ncn([C@@H]2O[C@H](CO)[C@@H](O)[C@H]2O)c(=O)n1 [azacitidine]
Fold change vs veh, ACTR2: 0.91
